Measured values as given in EP4603105A1, “PHARMACEUTICAL COMPOSITION CONTAINING CYCLIC COMPOUND HAVING SELECTIVE KRAS INHIBITORY EFFECT AGAINST HRAS AND NRAS” (CHUGAI SEIYAKU KABUSHIKI KAISHA, priority 2022, dated 2024).
Like-named read-outs stand apart in the source and are kept apart here. *1 amine or outer side, *2 acyl side, *3 side chain or, on linkers, in order; H or OH if unused. Where a SMILES comes first, the peptide text is derived from it. Bridges are numbered along the chain shown (N, C = ends). [ ]: non-standard residue; d: D form. The star is where a group is joined. hPhe(3-Cl-4-CF3) = N[C@@H](CCc1ccc(C(F)(F)F)c(Cl)c1)C(=O)O; NPrPhe(4-CF3) = CCCN[C@@H](Cc1ccc(C(F)(F)F)cc1)C(=O)O; NPrPhe(4-Me) = CCCN[C@@H](Cc1ccc(C)cc1)C(=O)O; X21 = CCCN([C@H](C(=O)[*:2])C1CCCC1)[*:1]; NMeGly(cPent) = CN[C@H](C(=O)O)C1CCCC1; Pro(4,4-F2) = O=C(O)[C@@H]1CC(F)(F)CN1; Gly(N-propargyl) = C#CCNCC(=O)O; NMeD = CN[C@@H](CC(=O)O)C(=O)O; NMeL = CN[C@@H](CC(C)C)C(=O)O; Morpholide = C1CN(*)CCO1; NMeA = CN[C@@H](C)C(=O)O; Ac5c = NC1(C(=O)O)CCCC1; Aze = O=C(O)[C@@H]1CCN1; NEtG = CCNCC(=O)O; Sar = CNCC(=O)O

Assays:
[1] = target: GDP-bound NRAS wild-type protein (Homo sapiens, UniProt P01111); assay: Binding to NRAS by surface plasmon resonance (SPR), KD and KD ratio to KRAS
In short: (§1)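 GDP-bound biotin-Avi RAS captured at ~100–300 RU, 30°C, pH 7.4 HBS containing 10 µM GDP, 10 mM MgCl2, 1 mM DTT, 0.01% Tween 20 and 4% DMSO. KD by 1:1 fitting.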

[2] = system: human lung cancer strain NCI-H441; type: cell-based
In short: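 Readout: […] after the ATP-based reagent. Compound: serial dilutions in dimethyl sulfoxide.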

[3] = target: HRAS wild-type protein (Homo sapiens, UniProt P01112); assay: Binding to HRAS by surface plasmon resonance (SPR), KD and KD ratio to KRAS
In short: as §1

[4] = ratio of KD for GDP-bound NRAS wild-type protein to KD for KRAS
[5] = ratio of KD for HRAS wild-type protein to KD for KRAS
[6] = ratio of KD value for GDP-bound NRAS wild-type protein to KD value for KRAS (SPR)
[7] = ratio of KD value for HRAS wild-type protein to KD value for KRAS (SPR)
[8] = ratio of the KD value with respect to GDP-bound NRAS wild-type protein to the KD value with respect to KRAS
[9] = ratio of the KD value with respect to HRAS wild-type protein to the KD value with respect to KRAS

GDP-bound NRAS wild-type protein, sequence (P01111 whole entry): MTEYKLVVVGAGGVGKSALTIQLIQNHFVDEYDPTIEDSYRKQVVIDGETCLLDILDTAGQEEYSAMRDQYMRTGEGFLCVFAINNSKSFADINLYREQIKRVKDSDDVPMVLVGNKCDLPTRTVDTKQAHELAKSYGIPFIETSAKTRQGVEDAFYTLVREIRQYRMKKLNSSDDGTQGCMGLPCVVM
HRAS wild-type protein, sequence (P01112 whole entry): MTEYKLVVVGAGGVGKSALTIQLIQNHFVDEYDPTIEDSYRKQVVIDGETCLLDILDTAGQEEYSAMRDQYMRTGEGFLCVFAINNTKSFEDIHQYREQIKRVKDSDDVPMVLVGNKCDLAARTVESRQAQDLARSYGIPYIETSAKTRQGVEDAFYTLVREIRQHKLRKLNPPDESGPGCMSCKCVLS

SMILES | IC50 [2] | NRAS /KRAS [1, 4] | HRAS /KRAS [3, 5] | NRAS /KRAS [1, 6] | HRAS /KRAS [3, 7] | NRAS /KRAS [1, 8] | HRAS /KRAS [3, 9] | IC50 ([2]; NCI-H441 cells, 4 days, CellTiter-Glo, read-out: NCl-H441 IC50)
CCO[C@@H]1C[C@H]2C(=O)NC3(CC(C)(C)C3)C(=O)N(C)[C@@H](C3CCCC3)C(=O)N(C)[C@H](C(=O)N(C)CC)CC(=O)N(C)[C@@H](CC)C(=O)N[C@@H]([C@@H](C)CC)C(=O)N(C)CC(=O)N(C)[C@H]3C/C=C\CCN(C3=O)[C@@H](Cc3ccc(C(F)(F)F)cc3)C(=O)N(C)CC(=O)N[C@@H](CCc3ccc(Cl)c(Cl)c3)C(=O)N2C1 [PP2822] | 14.1 nM | A (a compound having 10 or more and less than 20 is denoted as A) | A (a compound having 10 or more and less than 20 is denoted as A) |  |  |  |  | 
CCO[C@@H]1C[C@H]2C(=O)NC3(CCC3)C(=O)N(C)[C@@H](C3CCCC3)C(=O)N3CCC[C@@H]3CC(=O)N(C)[C@@H](CC3CC3)C(=O)N[C@@H]([C@@H](C)CC)C(=O)N(C)CC(=O)N(C)[C@H]3C/C=C\CCN(C3=O)[C@@H](Cc3ccc(C(F)(F)F)cc3)C(=O)N(C)CC(=O)N[C@@H](CCc3cc(F)c(C(F)(F)F)c(F)c3)C(=O)N2C1 [PP1613] | 14.7 nM |  |  | B (a compound having 3 or more and less than 10 is denoted as B) | B (a compound having 3 or more and less than 10 is denoted as B) |  |  | 
CCC[C@H]1C(=O)N[C@@H]([C@@H](C)CC)C(=O)N(C)CC(=O)N(C)[C@H]2C/C=C\CCN(C2=O)[C@@H](Cc2ccc(C(F)(F)F)cc2)C(=O)N(C)CC(=O)N[C@@H](CCc2cc(F)c(C(F)(F)F)c(F)c2)C(=O)N2C[C@H](OCC)C[C@H]2C(=O)N(C)C2(CCC2)C(=O)N(C)[C@@H](C2CCCC2)C(=O)N(C)[C@H](C(=O)N2CCCCC2)CC(=O)N1C [PP3118] | 6.7 nM | A (a compound having 10 or more and less than 20 is denoted as A) | B (a compound having 3 or more and less than 10 is denoted as B) |  |  |  |  | 
CCCN1C(=O)[C@@H]2CCN2C(=O)[C@H](C)N(C)C(=O)[C@H]([C@@H](C)CC)NC(=O)[C@H](CC(C)C)N(C)C(=O)C[C@@H](C(=O)N2CCOCC2)N(C)C(=O)[C@H](C2CCCC2)N(C)C(=O)C2(CCCC2)NC(=O)[C@@H]2CCCN2C(=O)[C@H](CCc2ccc(C(F)(F)F)c(Cl)c2)NC(=O)CN(C)C(=O)[C@@H]1C1CCCC1 [PP0054] ([NMeL]I[NMeA][Aze][X21][Sar][hPhe(3-Cl-4-CF3)]P[Ac5c][NMeGly(cPent)][NMeD]-Morpholide; lactam N-11) |  | C (A compound having a KD ratio of 0.1 or more and less than 3 is denoted as C) | C (A compound having a KD ratio of 0.1 or more and less than 3 is denoted as C) |  |  |  |  | 82 nM
CCCN1C(=O)CN(CC)C(=O)CN(C)C(=O)[C@H]([C@@H](C)CC)NC(=O)[C@H](CC(C)C)N(C)C(=O)C[C@@H](C(=O)N2CCOCC2)N(C)C(=O)[C@H](C2CCCC2)N(C)C(=O)C2(CCCC2)NC(=O)[C@@H]2CCCN2C(=O)[C@H](CCc2ccc(C(F)(F)F)c(Cl)c2)NC(=O)CN(CC)C(=O)[C@@H]1Cc1ccc(C)cc1 [PP0069] ([NMeL]I[Sar][NEtG][NPrPhe(4-Me)][NEtG][hPhe(3-Cl-4-CF3)]P[Ac5c][NMeGly(cPent)][NMeD]-Morpholide; lactam N-11) | 39.7 nM | C (A compound having a KD ratio of 0.1 or more and less than 3 is denoted as C) | C (A compound having a KD ratio of 0.1 or more and less than 3 is denoted as C) |  |  |  |  | 
C#CCN1CC(=O)N(C)CC(=O)N(CCC)[C@@H](Cc2ccc(C(F)(F)F)cc2)C(=O)N(C)CC(=O)N[C@@H](CCc2ccc(C(F)(F)F)c(Cl)c2)C(=O)N2CCC[C@H]2C(=O)NC2(CCCC2)C(=O)N(C)[C@@H](C2CCCC2)C(=O)N(C)[C@H](C(=O)N2CCOCC2)CC(=O)N(C)[C@@H](CC(C)C)C(=O)N[C@@H]([C@@H](C)CC)C1=O [PP0750] ([NMeL]I[Gly(N-propargyl)][Sar][NPrPhe(4-CF3)][Sar][hPhe(3-Cl-4-CF3)]P[Ac5c][NMeGly(cPent)][NMeD]-Morpholide; lactam N-11) | 11.1 nM |  |  |  |  | B (a compound having 3 or more and less than 10 is denoted as B) | C (A compound having a KD ratio of 0.1 or more and less than 3 is denoted as C) | 

Second part, led by results:

IC50 [2] | SMILES | NRAS /KRAS [1, 4] | HRAS /KRAS [3, 5] | NRAS /KRAS [1, 6] | HRAS /KRAS [3, 7] | NRAS /KRAS [1, 8] | HRAS /KRAS [3, 9] | IC50 ([2]; NCI-H441 cells, 4 days, CellTiter-Glo, read-out: NCl-H441 IC50)
1 nM | CCCN1C(=O)[C@@H]2CCN2C(=O)[C@H](C)N(C)C(=O)[C@H]([C@@H](C)CC)NC(=O)[C@H](CC(C)C)N(C)C(=O)C[C@@H](C(=O)N(C)C)N(C)C(=O)[C@H](C2CCCC2)N(C)C(=O)C2(CCCC2)NC(=O)[C@@H]2CC(F)(F)CN2C(=O)[C@H](CCc2ccc(C(F)(F)F)c(Cl)c2)NC(=O)CN(C)C(=O)[C@@H]1Cc1ccc(C(F)(F)F)cc1 [PP0436] ([NMeL]I[NMeA][Aze][NPrPhe(4-CF3)][Sar][hPhe(3-Cl-4-CF3)][Pro(4,4-F2)][Ac5c][NMeGly(cPent)][NMeD]-NMe2; lactam N-11) |  |  |  |  | C (A compound having a KD ratio of 0.1 or more and less than 3 is denoted as C) | C (A compound having a KD ratio of 0.1 or more and less than 3 is denoted as C) | 
9.1 nM | CCO[C@@H]1C[C@H]2C(=O)NC3(CC(C)(C)C3)C(=O)N(C)[C@@H](C3CCCC3)C(=O)N(C)[C@H](C(=O)N(C)CC)CC(=O)N(C)[C@@H](C3CC3)C(=O)N[C@@H]([C@@H](C)CC)C(=O)N(C)CC(=O)N(C)[C@H]3C/C=C\CCN(C3=O)[C@@H](Cc3ccc(C(F)(F)F)cc3)C(=O)N(C)CC(=O)N[C@@H](CCc3cc(F)c(C(F)(F)F)c(F)c3)C(=O)N2C1 [PP2036] |  |  |  |  | A (a compound having 10 or more and less than 20 is denoted as A) | A (a compound having 10 or more and less than 20 is denoted as A) | 
10.2 nM | CC[C@H](C)[C@@H]1NC(=O)[C@H](CC(C)C)N(C)C(=O)C[C@@H](C(=O)N(C)C)N(C)C(=O)[C@H](C2CCCC2)N(C)C(=O)C2(CCC2)NC(=O)[C@@H]2C[C@H](C)CN2C(=O)[C@H](CCc2cc(F)c(C(F)(F)F)c(F)c2)NC(=O)CN(C)C(=O)[C@H](Cc2ccc(C)cc2)N2CC/C=C\C[C@@H](C2=O)N(C)C(=O)CN(C)C1=O [PP1864] |  |  | A (a compound having 10 or more and less than 20 is denoted as A) | B (a compound having 3 or more and less than 10 is denoted as B) |  |  | 
3.8 nM | CCO[C@@H]1C[C@H]2C(=O)NC3(CCC3)C(=O)N(C)[C@@H](C3CCCC3)C(=O)N(C)[C@H](C(=O)N(C)C)CC(=O)N(C)[C@@H](CC3CCCCC3)C(=O)N[C@@H]([C@@H](C)CC)C(=O)N(C)CC(=O)N(C)[C@H]3CCCCN(C3=O)[C@@H](Cc3ccc(C(F)(F)F)cc3)C(=O)N(C)CC(=O)N[C@@H](CCc3cc(F)c(C(F)(F)F)c(F)c3)C(=O)N2C1 [PP0701] |  |  |  |  | C (A compound having a KD ratio of 0.1 or more and less than 3 is denoted as C) | B (a compound having 3 or more and less than 10 is denoted as B) | 
3.9 nM | CCCN1C(=O)CN(C)C(=O)CNC(=O)[C@H]([C@@H](C)CC)NC(=O)[C@H](CC(C)C)N(C)C(=O)C[C@@H](C(=O)N(C)C)N(C)C(=O)[C@H](C2CCCC2)N(C)C(=O)C2(CCCC2)NC(=O)[C@@H]2CCCN2C(=O)[C@H](CCc2ccc(C(F)(F)F)c(Cl)c2)NC(=O)CN(C)C(=O)[C@@H]1Cc1ccc(C(F)(F)F)cc1 [PP0417] ([NMeL]IG[Sar][NPrPhe(4-CF3)][Sar][hPhe(3-Cl-4-CF3)]P[Ac5c][NMeGly(cPent)][NMeD]-NMe2; lactam N-11) |  |  |  |  | B (a compound having 3 or more and less than 10 is denoted as B) | C (A compound having a KD ratio of 0.1 or more and less than 3 is denoted as C) | 
